Measured values published in patent US12121515B2, “Piperidine urea derivatives as soluble epoxide hydrolase inhibitors” (NeuroPn Therapeutics, Inc., priority 2021, dated 2024).

Columns and labels:
[1] = tested on: MPTP induced toxicity on neuronal cells; test: MPTP induced Parkinsonism in zebrafish, brain pathology (degenerated neurons in mid brain smear); assay type: in vivo; conditions: H&E
Procedure: Fishes were conditioned to consume three pellets a day. […] To prepare fish feed pellets containing L-DOPA 4 μl of 1 ng/μl of L-DOPA stock solution was distributed across 3 fish feed pellets ‘1.3 μl/pellet. Fish were fed, three pellets a day. Concentration of compounds dosed was controlled by number of pellets and the quantity of compound per pellet. Feed pellets without drug but with vehicle were used as placebo or control.
Brain Pathology: Fish were anesthetized with 15° C. water and sacrificed by a cut between the brain and the spinal cord. Brain was dissected and portions of mid brain were removed with a pin and knife. The brain tissue was smeared on a glass slide and stained with Haematoxylin & Eosin respectively for 2 minutes each followed by water washes. Slides were viewed at 45× magnification using Labomed LX 400 microscope. The number of degenerated neurons were counted for three fields per smear. […]

[2] = tested on: MPTP induced Parkinsonism in zebrafish; test: MPTP induced Parkinsonism in zebrafish, locomotor activity; assay type: in vivo; conditions: adult zebrafish, MPTP model; oral in feed pellets; may reflect L-DOPA-induced dyskinesia; FIG. 4
Procedure: The methodology described by Bretaud et al (Neurotoxicol Teratol. 2004 November-December; 26(6), 857-64) was used to study parkinsonism in zebrafish. For MPTP (1-methyl-4-phenyl-1,2,3,6-tetrahydropyridine) induced Parkinsonism, adult zebrafish were injected with 3 μl of 60 μg/g of MPTP as intramuscular injection along the lateral muscles.
Compound B of Formula I or L-DOPA were dosed orally by mixing with the fish feed pellets. Fishes were conditioned to consume three pellets a day. To prepare feed containing 1 ng of Compound B of Formula I, stock of 1 ng/μl Compound B was diluted to 10 μl in Ringer's solution and distributed to 3 fish feed pellets (‘3.3 μl per pellet). Prior to adding Compound B, fish feed pellets were dried at 37° C. for 1 hour to remove moisture. Post addition of Compound B solution and absorption by the pellet, pellets were stored at 4° C. […] Concentration of compounds dosed was controlled by number of pellets and the quantity of compound per pellet. […]
Locomotor Activity: The observation tank was divided into four zones by drawing three vertical lines at equal distances, at a length of 6.25 cm per zone. The number of lines that adult zebrafish crossed over a period of 5 minutes was counted. Fishes were allowed to acclimatize in measurement tanks for a period of 30 minutes before readings were taken. […]

## N[C@@H](Cc1ccc(O)c(O)c1)C(=O)O [L-DOPA]
[1]; FIG. 5
  brain pathology (brain smear appearance, effect on MPTP induced toxicity on neuronal cells): did not have significant effect
[1]; day 8, FIG. 5
  change in neurodegenerative cell number compared to MPTP group: non-significant decrease
[2]
  movement behavior on continued treatment (beyond day 3): heightened movement behavior
